Reference: patent US11166460B2, “α-amino acrylate microbicide, and preparation method therefor and uses thereof” (priority 2017, dated 2021)
Converted amounts (≈) assume the structure as drawn. Where two headings read alike, the source gives them in different places.

Key:
[1] = system: Phytophthora infestans (Mont) de Bary; test: microbe, parasite or virus in culture; format: cell-based; conditions: Phytophthora infestans
[2] = system: Alternaria solani; test: Fungicidal activity, fungi growth rate method, AS; format: cell-based; conditions: Alternaria solani, 50 μg/mL
[3] = system: Botrytis cinerea; test: Fungicidal activity, fungi growth rate method, BC; format: cell-based; conditions: Botrytis cinerea, 50 μg/mL
[4] = system: Pellicularia sasakii; test: Fungicidal activity, fungi growth rate method, PS; format: cell-based; conditions: 50 μg/mL
[5] = system: tobacco mosaic virus (TMV); test: Anti-TMV protective activity (protection mode), live friction inoculation on tobacco seedlings; format: in vivo; conditions: Tobacco mosaic virus, read-out: Anti-TMV activity, Protection effect (inhibition)
[6] = system: wheat Gibberella zeae; test: microbe, parasite or virus in culture; format: cell-based; conditions: Fusarium graminearum
[7] = system: tobacco mosaic virus (TMV); test: Anti-TMV inducing activity (induction mode), tobacco seedlings; format: in vivo; conditions: Tobacco mosaic virus, read-out: Anti-TMV activity, Induction effect (inhibition), 100 μg/mL, tobacco seedlings
[8] = system: tobacco mosaic virus (TMV); test: Anti-TMV inactivation activity (inactivation mode), compound mixed with TMV before inoculation of tobacco leaves; format: in vivo; conditions: Tobacco mosaic virus, read-out: Anti-TMV activity, Inactivation effect (inhibition)
[9] = system: Physalospora piricola; test: Fungicidal activity, fungi growth rate method, PP; format: cell-based; conditions: 50 μg/mL
[10] = system: Sclerotinia sclerotiorum; test: microbe, parasite or virus in culture; format: cell-based; conditions: Sclerotinia sclerotiorum; for inhibition at 50 µg/mL: 50 μg/mL
[11] = system: Rhizoctonia cerealis; test: Fungicidal activity, fungi growth rate method, RC; format: cell-based; conditions: Ceratobasidium cereale, 50 μg/mL
[12] = system: Cercospora arachidicola; test: Fungicidal activity, fungi growth rate method, CA; format: cell-based; conditions: Mycosphaerella arachidis, 50 μg/mL
[13] = system: tobacco mosaic virus (TMV); test: Anti-TMV curative activity (treatment mode), live friction inoculation on tobacco seedlings; format: in vivo; conditions: Tobacco mosaic virus, read-out: Anti-TMV activity, Curative effect (inhibition), 100 μg/mL, tobacco seedlings, checked on seventh day
[14] = read-out: Fungicidal activity (inhibition) against PI: Phytophthora infestans (Mont) de Bary
[15] = read-out: Fungicidal activity, inhibition, PI
[16] = read-out: Fungicidal activity (inhibition) against AS: Alternaria solani
[17] = read-out: Fungicidal activity, inhibition, AS
[18] = read-out: Fungicidal activity (inhibition) against BC: Botrytis cinerea
[19] = read-out: Fungicidal activity, inhibition, BC
[20] = read-out: Fungicidal activity (inhibition) against PS: Pellicularia sasakii
[21] = read-out: Fungicidal activity, inhibition, PS
[22] = read-out: Fungicidal activity (inhibition) against GZ: wheat Gibberella zeae
[23] = read-out: Fungicidal activity, inhibition, GZ
[24] = read-out: Fungicidal activity (inhibition) against PP: Physalospora piricola
[25] = read-out: Fungicidal activity, inhibition, PP
[26] = read-out: Fungicidal activity (inhibition) against SS: Sclerotinia sclerotiorum
[27] = read-out: Fungicidal activity, inhibition, SS
[28] = read-out: Fungicidal activity (inhibition) against RC: Rhizoctonia cerealis
[29] = read-out: Fungicidal activity, inhibition, RC
[30] = read-out: Fungicidal activity (inhibition) against CA: Cercospora arachidicola
[31] = read-out: Fungicidal activity, inhibition, CA

Row | Compound | inhibition at 50 µg/mL [1, 14] | inhibition at 50 µg/mL [1, 15] | inhibition at 50 µg/mL [2, 16] | inhibition at 50 µg/mL [2, 17] | inhibition at 50 µg/mL [3, 18] | inhibition at 50 µg/mL [3, 19] | inhibition at 50 µg/mL [4, 20] | inhibition at 50 µg/mL [4, 21] | melting point | inhibition at 100 µg/mL [5] | inhibition at 50 µg/mL [6, 22] | inhibition at 50 µg/mL [6, 23] | inhibition at 100 µg/mL [7] | inhibition at 100 µg/mL [8] | inhibition at 50 µg/mL [9, 25] | inhibition at 50 µg/mL [10, 26] | inhibition at 50 µg/mL [10, 27] | inhibition at 50 µg/mL [11, 29] | inhibition at 50 µg/mL [12, 31] | inhibition at 100 µg/mL [13] | further results
1 | O=C(NCc1ccccc1)/C(=C/c1ccccc1)NC(=O)c1ccccc1 [Compound 53, N-[(1Z)-2-phenyl-1-[[(phenylmethyl)amino]carbonyl]ethenyl]benzamide] | < 25% | 5% | < 30% | 16% | ≤ 20% | 16% | < 30% | 8% | 169 to 171 °C | 33% | < 45% | 23% | 0% | 58% | 13% | 75% | 75% | 5% | 18% | 55% | inhibition at 50 µg/mL [9, 24]: < 20%; inhibition at 50 µg/mL [11, 28]: < 20%; inhibition at 50 µg/mL [12, 30]: < 25%
2 | O=C(N/C(=C\c1ccccc1)C(=O)N1CCC(c2nc(CO)cs2)CC1)c1ccccc1 [Compound 31, (Z)-N-[1-[[[4-[2-(4-hydroxymethylthiazol)]]-1-piperidinyl]carbonyl]-2-phenylethenyl]benzamide] | – | 24% | – | 21% | – | 7% | – | 5% | 118 to 120 °C | 0% | – | 7% | 33% | 0% | 0% | – | 56% | 16% | 23% | 0% | –
3 | O=C(N/C(=C\c1ccccc1)C(=O)N1CCC(O)(c2ccc(Br)cc2)CC1)C1CCCCC1 [Compound 2, (Z)-N-[1-[[4-(4-bromophenyl)-4-hydroxy-1-piperidinyl]carbonyl]-2-phenylethenyl]cyclohexanecarboxamide] | – | 23% | – | 15% | – | 15% | – | 19% | 124 to 126 °C | 43% | – | 22% | 77% | 81% | 7% | 100% | 100% | 16% | 12% | 50% | EC90 ([10]; read-out: EC90 against S. sclerotiorum in vitro): 565 µg/mL (≈ 1110 µM)
4 | CNC(=O)/C(=C/c1ccccc1)NC(=O)c1ccccc1 [Compound 32, (Z)-N-[1-[(methylamino)carbonyl]-2-phenylethenyl]benzamide] | < 25% | 16% | < 30% | 5% | ≤ 20% | 11% | < 30% | 13% | 185 to 187 °C | 58% | < 45% | 6% | 10% | 25% | 12% | 80% | 80% | 4% | 16% | 0% | inhibition at 50 µg/mL [9, 24]: < 20%; inhibition at 50 µg/mL [11, 28]: < 20%; inhibition at 50 µg/mL [12, 30]: < 25%
5 | O=C(NCc1cccs1)/C(=C/c1ccccc1)NC(=O)c1ccccc1 [Compound 58, N-[(1Z)-2-phenyl-1-[[(2-thienylmethyl)amino]carbonyl]ethenyl]benzamide] | – | 21% | – | 21% | – | 18% | – | 14% | 210 to 212 °C | 0% | – | 29% | 2% | 0% | 9% | – | 47% | 18% | 6% | 17% | –
